According to US20240174657A1, “SELECTIVE ANGIOTENSIN II RECEPTOR LIGANDS” (priority 2021, published 2024):

How the values were obtained:
[1] = Metabolic stability in pooled human liver microsomes; format: in vitro ADME; conditions: human liver microsomes 0.5 mg/mL, 1 uM test compound, 37° C.; for T1/2, + NaDPH: with 1 mM NADPH; for half-life at 1 uM: pooled human liver microsomes, without NADPH, read-out: T1/2, no NaDPH
Experimental: Pooled human liver microsomes in PBS at a concentration of 0.5 mg/mL was incubated with or without 1 mM NADPH for 70 min at 37° C. Test compound was added after 10 minutes to a final concentration of 1 uM. Samples were withdrawn at 0, 5, 15 and 60 minutes and added to test tubes containing acetonitrile, to stop the reaction, and with terfenadine, used as internal standard. After centrifugation at 10 000×g for 5 minutes the supernatant was diluted 1:1 with 1% formic acid. Samples were separated on a reverse phase column and detected by triple quadrupole MSMS (Agilant model 6540). The concentration of the parent compound at the different time points was measured with an external standard curve using terfenadine as internal standard and the initial metabolic rate in the presence or absence of NADPH calculated.

[2] = biological target: T1, human recombinant AT2 receptor (Homo sapiens, UniProt P50052); experiment: biochemical; format: binding; conditions: ligand 125I CGP 42112A; for IC50: test concentrations 1, 10, 100 and 1000 nM, C21* = mean of runs, read-out: AT2 GraFit IC50
T1 sequence (P50052 1-363): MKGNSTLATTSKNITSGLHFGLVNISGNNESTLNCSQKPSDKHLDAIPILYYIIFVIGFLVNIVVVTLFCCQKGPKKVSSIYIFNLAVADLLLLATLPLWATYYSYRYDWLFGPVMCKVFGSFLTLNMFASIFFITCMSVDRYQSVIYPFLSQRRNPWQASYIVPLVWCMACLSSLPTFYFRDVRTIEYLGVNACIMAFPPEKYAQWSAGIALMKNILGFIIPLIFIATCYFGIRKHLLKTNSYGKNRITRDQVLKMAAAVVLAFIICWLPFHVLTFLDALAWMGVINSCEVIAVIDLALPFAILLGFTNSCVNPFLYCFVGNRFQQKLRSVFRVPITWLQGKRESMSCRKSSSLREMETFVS

[3] = biological target: T2, human recombinant AT1 receptor (Homo sapiens, UniProt P30556); experiment: Binding to AT1 receptor, radiometric scintillation assay (Eurofins ITEM24)
T2 construct: Eurofins protocol ITEM24
T2 sequence (P30556 1-359): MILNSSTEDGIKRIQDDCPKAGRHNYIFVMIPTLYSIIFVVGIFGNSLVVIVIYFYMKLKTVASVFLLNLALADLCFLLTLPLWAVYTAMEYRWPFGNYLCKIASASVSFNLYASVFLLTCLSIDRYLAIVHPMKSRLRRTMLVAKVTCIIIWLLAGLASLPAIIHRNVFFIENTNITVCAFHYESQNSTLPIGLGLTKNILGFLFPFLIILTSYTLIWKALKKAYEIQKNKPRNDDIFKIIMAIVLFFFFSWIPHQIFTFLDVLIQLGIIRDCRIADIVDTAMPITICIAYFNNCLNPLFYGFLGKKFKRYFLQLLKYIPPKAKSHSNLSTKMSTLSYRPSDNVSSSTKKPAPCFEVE

[4] = biological target: T3, CYP1A (Homo sapiens, UniProt P05177); experiment: CYP inhibition in human liver microsomes, phenacetin substrate; format: in vitro ADME; conditions: probe phenacetin, read-out: CYP1A Inh %
T3 construct: using isoform-specific substrates incubated with human liver microsomes; tissue Eurofins protocol ITEMG232; host or cells: human liver microsomes

[5] = biological target: T4, CYP2B6 (Homo sapiens, UniProt P20813); experiment: CYP inhibition in human liver microsomes, bupropion substrate; format: in vitro ADME; conditions: probe bupropion, read-out: CYP2B6 Inh %
T4 construct: using isoform-specific substrates incubated with human liver microsomes; tissue Eurofins protocol ITEMG232; host or cells: human liver microsomes
T4 sequence (P20813 1-491): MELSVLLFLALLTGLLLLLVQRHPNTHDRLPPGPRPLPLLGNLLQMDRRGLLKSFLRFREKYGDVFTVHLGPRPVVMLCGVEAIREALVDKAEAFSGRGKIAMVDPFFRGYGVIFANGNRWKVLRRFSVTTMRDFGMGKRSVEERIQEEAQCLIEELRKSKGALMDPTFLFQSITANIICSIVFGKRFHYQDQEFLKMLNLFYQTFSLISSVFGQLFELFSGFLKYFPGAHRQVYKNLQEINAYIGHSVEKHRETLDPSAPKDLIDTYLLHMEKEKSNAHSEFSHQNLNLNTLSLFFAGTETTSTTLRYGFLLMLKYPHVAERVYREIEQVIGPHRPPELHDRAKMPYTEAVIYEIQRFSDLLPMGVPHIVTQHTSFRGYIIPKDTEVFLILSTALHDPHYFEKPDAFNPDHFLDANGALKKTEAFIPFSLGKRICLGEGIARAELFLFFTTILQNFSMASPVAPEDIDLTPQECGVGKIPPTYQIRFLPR

[6] = biological target: T5, CYP2C19 (Homo sapiens, UniProt P33261); experiment: CYP inhibition in human liver microsomes, omeprazole substrate; format: in vitro ADME; conditions: probe omeprazole, read-out: CYP2C19 Inh %
T5 construct: using isoform-specific substrates incubated with human liver microsomes; tissue Eurofins protocol ITEMG232; host or cells: human liver microsomes

[7] = biological target: T6, CYP2C8 (Homo sapiens, UniProt P10632); experiment: CYP inhibition in human liver microsomes, paclitaxel and amodiaquine substrates; format: in vitro ADME; conditions: probe paclitaxel and amodiaquine, read-out: CYP2C8 Inh %
T6 construct: using isoform-specific substrates incubated with human liver microsomes; tissue Eurofins protocol ITEMG232; host or cells: human liver microsomes
T6 sequence (P10632 1-490): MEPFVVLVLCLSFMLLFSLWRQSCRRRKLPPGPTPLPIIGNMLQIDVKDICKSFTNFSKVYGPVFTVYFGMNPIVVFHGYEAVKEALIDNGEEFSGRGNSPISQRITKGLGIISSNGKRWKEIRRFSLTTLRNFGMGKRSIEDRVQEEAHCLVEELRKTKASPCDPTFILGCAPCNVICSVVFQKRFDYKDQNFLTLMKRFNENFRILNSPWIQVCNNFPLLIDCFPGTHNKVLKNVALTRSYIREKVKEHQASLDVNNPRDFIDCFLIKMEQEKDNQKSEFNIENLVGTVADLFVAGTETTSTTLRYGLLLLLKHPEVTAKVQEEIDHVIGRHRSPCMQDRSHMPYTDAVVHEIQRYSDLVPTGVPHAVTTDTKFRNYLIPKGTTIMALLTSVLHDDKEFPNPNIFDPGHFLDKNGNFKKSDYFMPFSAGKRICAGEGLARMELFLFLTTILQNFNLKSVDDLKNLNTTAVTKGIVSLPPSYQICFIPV

[8] = biological target: T7, CYP2C9 (Homo sapiens, UniProt P11712); experiment: CYP inhibition in human liver microsomes, diclofenac substrate; format: in vitro ADME; conditions: probe diclofenac, read-out: CYP2C9 Inh %
T7 construct: using isoform-specific substrates incubated with human liver microsomes; tissue Eurofins protocol ITEMG232; host or cells: human liver microsomes

[9] = biological target: T8, CYP2D6 (Homo sapiens, UniProt P10635); experiment: CYP inhibition in human liver microsomes, dextromethorphan substrate; format: in vitro ADME; conditions: probe dextromethorphan, read-out: CYP2D6 Inh %
T8 construct: tissue Eurofins protocol ITEMG232; host or cells: human liver microsomes

[10] = biological target: T9, CYP3A4 (Homo sapiens, UniProt P08684); experiment: CYP inhibition in human liver microsomes, midazolam substrate; format: in vitro ADME; conditions: probe midazolam, read-out: CYP3A4 midazolam Inh %
T9 construct: using isoform-specific substrates incubated with human liver microsomes; tissue Eurofins protocol ITEMG232; host or cells: human liver microsomes

[11] = tested on: CYP3A4&5; experiment: CYP inhibition in human liver microsomes, testosterone substrate; format: in vitro ADME; conditions: probe testosterone, read-out: CYP3A4&5 testosterone Inh %

T3 sequence (P05177 whole entry, canonical isoform): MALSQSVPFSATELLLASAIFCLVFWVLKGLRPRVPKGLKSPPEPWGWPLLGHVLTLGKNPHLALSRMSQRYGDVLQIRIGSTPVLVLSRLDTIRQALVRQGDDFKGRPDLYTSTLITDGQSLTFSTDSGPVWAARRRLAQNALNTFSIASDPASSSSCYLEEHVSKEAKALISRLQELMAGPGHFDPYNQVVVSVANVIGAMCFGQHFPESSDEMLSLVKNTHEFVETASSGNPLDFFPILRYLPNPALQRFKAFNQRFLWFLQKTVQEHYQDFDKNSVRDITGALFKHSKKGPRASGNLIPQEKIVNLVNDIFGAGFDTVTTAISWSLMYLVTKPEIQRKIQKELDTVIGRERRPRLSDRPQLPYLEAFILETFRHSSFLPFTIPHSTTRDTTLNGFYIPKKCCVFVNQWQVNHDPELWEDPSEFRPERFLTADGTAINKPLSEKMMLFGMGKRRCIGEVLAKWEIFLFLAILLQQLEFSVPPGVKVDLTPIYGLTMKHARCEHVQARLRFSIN
T7 sequence (P11712 whole entry, canonical isoform): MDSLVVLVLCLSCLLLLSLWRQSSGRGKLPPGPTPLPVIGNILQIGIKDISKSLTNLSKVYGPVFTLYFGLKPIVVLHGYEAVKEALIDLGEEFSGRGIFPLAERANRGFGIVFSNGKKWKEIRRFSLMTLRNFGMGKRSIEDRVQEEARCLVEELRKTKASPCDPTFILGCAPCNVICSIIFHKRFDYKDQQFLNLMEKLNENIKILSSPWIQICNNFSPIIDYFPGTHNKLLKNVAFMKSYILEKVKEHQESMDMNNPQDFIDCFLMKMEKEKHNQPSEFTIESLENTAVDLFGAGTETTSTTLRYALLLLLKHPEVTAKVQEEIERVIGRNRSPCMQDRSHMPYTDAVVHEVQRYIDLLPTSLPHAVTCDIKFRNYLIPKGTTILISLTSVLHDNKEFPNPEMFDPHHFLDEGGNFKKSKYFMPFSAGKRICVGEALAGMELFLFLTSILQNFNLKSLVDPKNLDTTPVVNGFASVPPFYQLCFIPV
T8 sequence (P10635 whole entry): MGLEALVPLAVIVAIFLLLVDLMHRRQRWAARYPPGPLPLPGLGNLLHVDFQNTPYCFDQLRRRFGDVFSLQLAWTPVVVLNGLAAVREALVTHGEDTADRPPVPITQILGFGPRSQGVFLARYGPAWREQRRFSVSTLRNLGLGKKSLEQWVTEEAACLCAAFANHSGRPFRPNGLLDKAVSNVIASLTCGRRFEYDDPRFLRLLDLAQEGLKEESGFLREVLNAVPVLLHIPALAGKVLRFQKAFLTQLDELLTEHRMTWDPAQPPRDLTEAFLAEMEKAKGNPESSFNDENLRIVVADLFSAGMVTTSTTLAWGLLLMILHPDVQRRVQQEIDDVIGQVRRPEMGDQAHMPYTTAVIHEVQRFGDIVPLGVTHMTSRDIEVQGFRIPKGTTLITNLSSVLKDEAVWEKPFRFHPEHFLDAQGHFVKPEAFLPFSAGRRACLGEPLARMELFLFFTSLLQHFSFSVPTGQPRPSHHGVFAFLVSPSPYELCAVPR
T9 sequence (P08684 whole entry, canonical isoform): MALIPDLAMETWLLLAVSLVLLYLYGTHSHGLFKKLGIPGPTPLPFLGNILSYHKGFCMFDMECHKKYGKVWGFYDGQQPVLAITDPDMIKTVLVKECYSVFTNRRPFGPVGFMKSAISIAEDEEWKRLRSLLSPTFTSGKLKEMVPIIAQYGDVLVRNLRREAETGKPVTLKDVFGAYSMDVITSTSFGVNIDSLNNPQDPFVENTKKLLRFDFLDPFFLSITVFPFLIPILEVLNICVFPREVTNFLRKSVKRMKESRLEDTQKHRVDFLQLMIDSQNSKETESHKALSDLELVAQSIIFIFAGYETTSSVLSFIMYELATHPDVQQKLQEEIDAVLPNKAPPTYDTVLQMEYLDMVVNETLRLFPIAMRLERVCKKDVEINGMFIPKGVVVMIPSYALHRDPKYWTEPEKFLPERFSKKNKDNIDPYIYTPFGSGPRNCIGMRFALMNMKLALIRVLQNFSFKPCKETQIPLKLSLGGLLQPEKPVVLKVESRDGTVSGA
T5 sequence (P33261 whole entry, canonical isoform): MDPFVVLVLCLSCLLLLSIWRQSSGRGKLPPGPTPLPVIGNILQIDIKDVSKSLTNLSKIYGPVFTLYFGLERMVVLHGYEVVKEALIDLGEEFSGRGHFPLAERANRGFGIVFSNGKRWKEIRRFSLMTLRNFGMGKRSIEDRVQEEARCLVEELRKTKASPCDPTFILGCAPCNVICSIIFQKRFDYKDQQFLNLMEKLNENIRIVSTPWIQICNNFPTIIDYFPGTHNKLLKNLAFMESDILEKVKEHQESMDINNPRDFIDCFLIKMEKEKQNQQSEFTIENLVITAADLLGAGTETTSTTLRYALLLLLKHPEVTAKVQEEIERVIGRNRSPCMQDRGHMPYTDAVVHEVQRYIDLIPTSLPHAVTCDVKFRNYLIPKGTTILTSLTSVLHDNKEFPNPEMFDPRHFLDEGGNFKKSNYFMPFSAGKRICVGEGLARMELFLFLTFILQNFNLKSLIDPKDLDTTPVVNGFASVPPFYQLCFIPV

SMILES | T1/2, + NaDPH [1] [h] | half-life at 1 uM [1] [h] | IC50 [2] [nM] | IC50 [3] [nM] | inhibition at 10 µM [4] [%] | inhibition at 10 µM [5] [%] | inhibition at 10 µM [6] [%] | inhibition at 10 µM [7] [%] | inhibition at 10 µM [8] [%] | inhibition at 10 µM [9] [%] | inhibition at 10 µM [10] [%] | inhibition at 10 µM [11] [%] | Ki ([2]; seven-point dose-response curve, read-out: AT2R Ki) [nM]
Cc1nccn1Cc1ccc(-c2cc(CC(C)C)sc2S(=O)(=O)NC(=O)NCCO)cc1F [Example 1, 1-[[3-[3-Fluoro-4-[(2-methylimidazol-1-yl)methyl]phenyl]-5-isobutyl-2-thienyl]sulfonyl]-3-(2-hydroxyethyl)urea] | >1 | > 1 | 5 | 24000 | -26.3 | 6.2 | 6.5 | 35.2 | 5.5 | 5.3 | 7.2 | 12.4 | –
Cc1nccn1Cc1ccc(-c2cc(CC(C)C)sc2S(=O)(=O)NC(=O)NCCCO)cc1F [Example 2, 1-[[3-[3-Fluoro-4-[(2-methylimidazol-1-yl)methyl]phenyl]-5-isobutyl-2-thienyl]sulfonyl]-3-(3-hydroxypropyl)urea] | >1 | > 1 | 20 | 21000 | -0.9 | 3.1 | 26.3 | 30.9 | 16.5 | 13.6 | 25.3 | 18.4 | –
Cc1nccn1Cc1ccc(-c2cc(CC(C)C)sc2S(=O)(=O)NC(=O)NCC(C)(C)O)cc1F [Example 3, 1-[[3-[3-Fluoro-4-[(2-methylimidazol-1-yl)methyl]phenyl]-5-isobutyl-2-thienyl]sulfonyl]-3-(2-hydroxy-2-methyl-propyl)urea] | >1 | > 1 | 5.4 | 23000 | 15.5 | 22.6 | 21.2 | 28 | 31.8 | 38 | 52.8 | 29.7 | –
Cc1nccn1Cc1ccc(-c2cc(CC(C)C)sc2S(=O)(=O)NC(=O)NCCO)c(F)c1 [Example 4, 1-[[3-[2-Fluoro-4-[(2-methylimidazol-1-yl)methyl]phenyl]-5-isobutyl-2-thienyl]sulfonyl]-3-(2-hydroxyethyl)urea] | – | – | 45.5 | 34000 | -9.7 | 3.2 | 29.6 | 10.4 | 11.9 | 7.6 | 24.5 | 18.9 | –
Cc1nccn1Cc1c(F)cc(-c2cc(CC(C)C)sc2S(=O)(=O)NC(=O)NCCO)cc1F [Example 5, 1-[[3-[3,5-Difluoro-4-[(2-methylimidazol-1-yl)methyl]phenyl]-5-isobutyl-2-thienyl]sulfonyl]-3-(2-hydroxyethyl)urea] | >1 | > 1 | 18.4 | 49000 | 8 | 27.4 | -30.1 | 36.2 | 38 | 36.3 | 44.6 | 27.5 | –
CC(C)Cc1cc(-c2ccc(Cn3ccnc3C(C)(C)C)c(F)c2)c(S(=O)(=O)NC(=O)NCCO)s1 [Example 6, 1-[[3-[4-[(2-tert-Butylimidazol-1-yl)methyl]-3-fluoro-phenyl]-5-isobutyl-2-thienyl]sulfonyl]-3-(2-hydroxyethyl)urea] | >1 | > 1 | 0.64 | 2100 | 3.5 | 8.2 | 14.7 | 73.8 | 11.5 | 10.1 | 13 | 4.5 | –
CC(C)Cc1cc(-c2ccc(Cn3ccnc3C(C)(C)C)c(F)c2)c(S(=O)(=O)NC(=O)NCC(C)(C)O)s1 [Example 7, 1-[[3-[4-[(2-tert-Butylimidazol-1-yl)methyl]-3-fluoro-phenyl]-5-isobutyl-2-thienyl]sulfonyl]-3-(2-hydroxy-2-methyl-propyl)urea] | >1 | > 1 | 0.95 | 1900 | 2.7 | 17.4 | 27.4 | 69.8 | 9.9 | 3.9 | 7.7 | 2.8 | –
CCc1nccn1Cc1ccc(-c2cc(CC(C)C)sc2S(=O)(=O)NC(=O)NCCO)cc1F [Example 8] | >1 | > 1 | 2.5 | 9500 | 11.8 | 14 | 17.7 | 2.3 | 26.8 | 8 | 23.7 | 22.3 | –
CC(C)Cc1cc(-c2ccc(Cn3ccnc3C(C)C)c(F)c2)c(S(=O)(=O)NC(=O)NCCO)s1 [Example 10, 1-[[3-[3-Fluoro-4-[(2-isopropylimidazol-1-yl)methyl]phenyl]-5-isobutyl-2-thienyl]sulfonyl]-3-(2-hydroxyethyl)urea] | >1 | > 1 | 1.9 | 8400 | – | – | – | – | – | – | – | – | 0.95
